Reference: PMC6216040, “Repurposing of an old drug: In vitro and in vivo efficacies of buparvaquone against Echinococcus multilocularis” (International Journal for Parasitology: Drugs and Drug …, 2018)
Converted amounts (≈) assume the structure as drawn. Where two headings read alike, the source gives them in different places. One block for each compound: values may come before it.

Experiments:
[1] = test system: E. multilocularis metacestodes; assay: PGI-assay: drug-induced damage on in vitro cultured metacestodes (Pathogen Box screening cascade and EC50); type: cell-based, Echinococcus multilocularis; conditions: for activity in the screen at 10 μM (confirmed in triplicates, >20% relative PGI release): 5 and 12 days
[2] = test system: E. granulosus protoscoleces; design: method as in Bonilla et al., 2008; conditions: after 48 h; ref Bonilla et al., 2008; cited from earlier work
[3] = test system: E. multilocularis metacestodes; assay: Vesicle viability assay by Alamar Blue (MIC); type: cell-based, Echinococcus multilocularis; conditions: Echinococcus multilocularis, 288 h; Alamar Blue vesicle viability assay, 12 days of incubation; read-out: E. multilocularis MIC
Protocol: The setup was the same as for PGI-assay EC50 calculations and it was performed in triplicates. […] Data was used to calculate the minimal inhibitory concentrations (MICs) of these compounds on metacestodes.

[4] = test system: Reuber rat hepatoma (RH) cells; assay: Cytotoxicity by Alamar Blue assay in rat hepatoma cells; type: cell-based; conditions: 120 h, Alamar Blue, 5 days
[5] = test system: E. multilocularis metacestodes; assay: Transmission electron microscopy of BPQ-treated metacestodes; type: cell-based, Echinococcus multilocularis
Protocol: The preparation of the samples for transmission electron microscopy (TEM) was done according to the protocol of [Hemphill and Croft (1997)]. In short, E. multilocularis metacestodes were distributed to 48-well-plates and incubated with DMSO or BPQ (30–0.04 μM) as described above. After an incubation period of 5 days, metacestodes were fixed in 2% glutaraldehyde in 0.1 M sodium cacodylate buffer; pH = 7.3 for 1 h. Next, the samples were stained for 2 h in a 2% osmium tetroxide solution cacodylate buffer, and subsequently pre-stained in a saturated uranyl acetate solution for 30 min. After washing the samples with water, they were dehydrated stepwise by washing in increasing concentrations of ethanol (30%, 50%, 70%, 90%, and three times 100%). The samples were then embedded in Epon 812 resin with three subsequent resin changes during 2 days and incubated at 65 °C overnight for polymerization. Sections for TEM (80 nm) were cut using an ultramicrotome (Reichert and Jung, Vienna, Austria), and were loaded onto formvar-carbon coated nickel grids (Plano GmbH, Marburg, Germany). The specimens were finally stained with uranyl acetate and lead citrate, and were viewed on a CM12 transmission electron microscope (Philips Electron Optics, Eindhoven, Netherlands) that operates at 80 kV.

[6] = test system: mitochondrial respiration of E. multilocularis GL cells; assay: Mitochondrial respiration (OCR) in permeabilized GL cells by Seahorse XFp analyzer; type: cell-based, Echinococcus multilocularis; conditions: 1 μM
[7] = test system: E. multilocularis metacestodes; assay: BPQ treatment of E. multilocularis infected mice; type: in vivo, Balb/c mice; conditions: for parasite burden compared to the control: p.o. in corn oil, 5 days per week, 4 weeks, BPQ 100 mg/kg, ABZ 200 mg/kg
Protocol: Balb/c mice, 6 weeks old, were purchased from Charles River Laboratories (Sulzheim, Germany) and used for in vivo experiments when they were 8 weeks old and weighted approximately 20 g. The mice were housed in a type 3 cage containing enrichment in the form of a cardboard house and paper and woodchip bedding with a maximum of seven mice per cage. […] Food and water was provided ad libitum. Experimentally infected mice were treated with BPQ to elucidate the efficacy of the drug in vivo. To infect mice, in vitro grown E. multilocularis metacestodes (isolate […]) were washed in PBS, were mechanically destroyed by pipetting and the resulting suspension was centrifuged for 5 min at 500 g. The parasite tissue was then taken up in an equal volume of PBS. Each mouse was subsequently infected intraperitoneally (i.p.) with 200 μl of this suspension. […] infected mice were randomly distributed into 3 treatment groups (8 animals per group) with 4 animals per cage. […] Treatments of mice started 2 weeks post-infection and lasted for 4 weeks, with consecutive treatment of mice for 5 days per week, followed by an interruption of treatment for 2 days for recovery. All treatments were administered by oral gavage in a volume of 50 μl, with ABZ and BPQ being suspended in corn oil. After four weeks, all mice were anesthetized with isoflurane and subsequently euthanized by CO2. The parasitic tissue from each mouse was completely resected and weighed. The mass of the resected parasitic tissue was used for statistical analyses of the experiment. […] The significance level was set to p < 0.05. Figures were prepared in R and Adobe Illustrator 2015.1.0.

[8] = BPQ levels in orally treated mice (literature); type: in vivo; conditions: extrapolation to 100 mg/kg
[9] = design: method as in Smith et al., 2018; conditions: mice, oral, single dose of 6 mg/kg; ref Smith et al., 2018; cited from earlier work
[10] = test system: E. multilocularis metacestodes; assay: PGI-assay under anaerobic/aerobic conditions; conditions: oxygen-free atmosphere, 5 days
[11] = test system: human foreskin fibroblasts (HFF); assay: Cytotoxicity by Alamar Blue assay in human foreskin fibroblasts; conditions: Homo sapiens, Fibroblast, 120 h
[12] = 1 µM, triplicates, 5 days of incubation
[13] = 1 µM, triplicates, 12 days of incubation

SMILES: CC(=O)OCC1OC([S-])C(OC(C)=O)C(OC(C)=O)C1OC(C)=O.CCP(CC)CC.[Au+] (stereo not shown) [MMV688978, Auranofin, reference compound]
activity against metacestodes at 1 μM ([1]; triplicates): not at 1 μM | PGI release, % of Tx-100 control, average, 5d [1, 12]: -2.65% | PGI release, % of Tx-100 control, average, 12d [1, 13]: -1.30% | activity in the screen at 10 μM (confirmed in triplicates, >20% relative PGI release) [1]: active | PGI release, % of the Tx-100 control, 5d ([1]; 10 µM, singlets, 5 days of incubation): 84.86% | PGI release, % of the Tx-100 control, 12d ([1]; 10 µM, singlets, 12 days of incubation): 96.09% | PGI release, % of Tx-100 control, average, 5d ([1]; confirmatory screening at 10 µM in triplicates, 5 days of incubation, values as % of Tx-100 control): 47.33% | PGI release, % of Tx-100 control, average, 12d ([1]; confirmatory screening at 10 µM in triplicates, 12 days of incubation, values as % of Tx-100 control): 61.40% | concentration killing protoscoleces [2]: 2.5 µM

MIC [3]: 0.56 µM (≈ 0.183 µg/mL) | Cmax extrapolated (assuming linear correlation) [8]: 20000 nM
SMILES: CC(C)(C)[C@H]1CC[C@H](CC2=C(O)C(=O)c3ccccc3C2=O)CC1 [MMV689480, Buparvaquone]
activity against metacestodes at 1 μM ([1]; triplicates): distinct in vitro activities | PGI release, % of Tx-100 control, average, 5d [1, 12]: 1.05% | PGI release, % of Tx-100 control, average, 12d [1, 13]: 52.04% | activity in the screen at 10 μM (confirmed in triplicates, >20% relative PGI release) [1]: active | cytotoxicity at 10 µM ([1]; Echinococcus multilocularis, 120 h, 10 µM, singlets, 5 days of incubation, read-out: PGI release, % of the Tx-100 control, 5d): 27.4% | EC50 ([1]; Echinococcus multilocularis, 120 h, PGI-assay, 5 days in vitro, read-out: E. multilocularis EC50): 2.87 µM | PGI release, % of Tx-100 control at 10 µM ([1]; Echinococcus multilocularis, 120 h, confirmatory screening at 10 µM in triplicates, 5 days of incubation, values as % of Tx-100 control, read-out: PGI release, % of Tx-100 control, average, 5d): 41.2% | cytotoxicity at 10 µM ([1]; Echinococcus multilocularis, 288 h, 10 µM, singlets, 12 days of incubation, read-out: PGI release, % of the Tx-100 control, 12d): 38.6% | PGI release, % of Tx-100 control at 10 µM ([1]; Echinococcus multilocularis, 288 h, confirmatory screening at 10 µM in triplicates, 12 days of incubation, values as % of Tx-100 control, read-out: PGI release, % of Tx-100 control, average, 12d): 63.7% | IC50 ([1]; Echinococcus multilocularis, read-out: IC50 against in vitro cultured E. multilocularis metacestodes): 2.87 µM | toxicity against E. multilocularis metacestodes compared with host cells (HFF, RH) ([1]; comparison of EC50 with IC50 on mammalian cells): specific toxicity | IC50 ([4]; confluent cells, read-out: RH confluent IC50): 17.4 µM | IC50 ([4]; preconfluent cells, read-out: RH preconfluent IC50): 8.47 µM | ultrastructural alterations (TEM) at 1 μM ([5]; 1 μM, 5 days): membrane stacks were observed, and the GL started to separate from the LL | ultrastructural alterations (TEM) at 3 μM ([5]; 3 μM, 5 days): metacestode integrity was seriously impaired | lowest concentration with ultrastructural damage (TEM) ([5]; 5 days of BPQ): 0.3 µM | oxygen consumption rate (OCR) after addition of drug ([6]; permeabilized GL cells fed with succinate): rapidly decreased | inhibition of mitochondrial electron transport chain complex ([6]; OCR restored by ascorbate/TMPD, not by succinate or glycerol 3-phosphate): selectively inhibits complex III | parasite burden compared to the control [7]: failed to reduce the parasite burden | parasite burden compared to the control ([7]; listed as BPQ): no significant difference | adverse effects due to treatment ([7]; whole course of treatment, 4 weeks p.o.): None of the mice showed signs of adverse effects | Cmax [9]: 1200 nM | damage on metacestodes (PGI-assay), anaerobic, 10 μM or lower ([10]; 10 μM or lower): did not induce damage | damage on metacestodes (PGI-assay), anaerobic, 30 μM ([10]; 30 μM): active | IC50 ([11]; read-out: HFF confluent IC50): 48.6 µM | IC50 ([11]; read-out: HFF preconfluent IC50): 5.99 µM
